Measurements published in ChEMBL document CHEMBL1153173, “Oxygenated analogues of UK-396082 as inhibitors of activated thrombin activatable fibrinolysis inhibitor” (Bioorg Med Chem Lett, 2010).

Experiments:
Carboxypeptidase B2 = molecular target: T1, Carboxypeptidase B2 (Homo sapiens, UniProt Q96IY4); test: Inhibition of active form of human recombinant TAFI assessed as substrate turnover every 15 seconds for 30 mins
T1 sequence (Q96IY4 whole entry): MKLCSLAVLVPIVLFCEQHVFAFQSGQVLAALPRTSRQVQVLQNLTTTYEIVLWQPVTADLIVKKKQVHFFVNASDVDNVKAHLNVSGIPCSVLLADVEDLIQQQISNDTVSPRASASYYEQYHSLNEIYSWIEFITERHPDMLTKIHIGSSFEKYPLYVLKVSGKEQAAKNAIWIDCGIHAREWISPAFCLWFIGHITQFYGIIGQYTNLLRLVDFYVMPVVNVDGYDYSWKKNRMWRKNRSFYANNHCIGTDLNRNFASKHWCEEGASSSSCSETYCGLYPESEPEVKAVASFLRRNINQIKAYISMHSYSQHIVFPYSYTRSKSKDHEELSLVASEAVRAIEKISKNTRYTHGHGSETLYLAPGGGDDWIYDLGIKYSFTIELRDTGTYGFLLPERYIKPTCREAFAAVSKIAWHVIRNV

Carboxypeptidase B = molecular target: T2, Carboxypeptidase B (Homo sapiens, UniProt P15086); test: Inhibition of human pancreatic carboxypeptidase B
T2 sequence (P15086 whole entry): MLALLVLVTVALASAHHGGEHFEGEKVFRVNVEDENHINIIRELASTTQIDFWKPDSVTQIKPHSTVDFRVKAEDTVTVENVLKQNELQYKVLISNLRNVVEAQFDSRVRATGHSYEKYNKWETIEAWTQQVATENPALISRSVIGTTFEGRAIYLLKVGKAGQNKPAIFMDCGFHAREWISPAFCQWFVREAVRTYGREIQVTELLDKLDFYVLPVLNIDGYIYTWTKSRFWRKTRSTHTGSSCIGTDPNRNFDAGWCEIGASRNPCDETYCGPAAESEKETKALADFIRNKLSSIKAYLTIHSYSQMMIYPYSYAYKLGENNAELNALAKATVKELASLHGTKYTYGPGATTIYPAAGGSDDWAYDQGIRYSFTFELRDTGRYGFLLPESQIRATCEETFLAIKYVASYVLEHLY

[1] = Half life in rat at 2 mg/kg, iv; assay type: ADME, organism-based; design: dose 2 mg/kg, route intravenous; details: in vivo
[2] = Oral bioavailability in rat at 5 mg/kg; assay type: ADME, organism-based; details: in vivo
Plasma = test: Plasma protein binding in rat; assay type: ADME, cell-free
[3] = Clearance in rat at 2 mg/kg, iv; assay type: ADME, organism-based; design: dose 2 mg/kg, route intravenous; details: in vivo
[4] = Volume of distribution in rat at 2 mg/kg, iv; assay type: ADME, organism-based; design: dose 2 mg/kg, route intravenous; details: in vivo
[5] = Half life in rat at 5 mg/kg, po; assay type: ADME, organism-based; design: dose 5 mg/kg, route oral; details: in vivo
[6] = Clearance in human at 10 mg/kg, iv; assay type: ADME, organism-based; design: dose 10 mg/kg, route intravenous; details: in vivo
[7] = Half life in human at 10 mg/kg, iv; assay type: ADME, organism-based; design: dose 10 mg/kg, route intravenous; details: in vivo
[8] = Volume of distribution in human at 10 mg/kg, iv; assay type: ADME, organism-based; design: dose 10 mg/kg, route intravenous; details: in vivo

| Ki (Carboxypeptidase B2) [nM] | Ki (Carboxypeptidase B) [nM] | SMILES | further results |
| --- | --- | --- | --- |
| 15 | 360 | CCCCn1cnc(CC(OCCN)C(=O)O)c1 (racemic) | – |
| 5.8 | 265 | C[C@H](CN)O[C@@H](Cc1cn(-c2ccccn2)cn1)C(=O)O | – |
| > 10000 | > 10000 | CCCn1cnc(C[C@@H](OCCN)C(=O)O)c1 | – |
| 6.7 | 238 | CCCn1cnc(C[C@H](OCCN)C(=O)O)c1 | half-life [1]: 2.7 h; bioavailability [2]: 9.8%; PPB (Plasma): 0%; clearance [3]: 13.4 mL/min/kg; Vd [4]: 3.1 L/kg; half-life [5]: 2.1 h |
| 150 | 1160 | CCCn1cnc(C[C@H](NCCN)C(=O)O)c1 | – |
| 16 | 206 | CCCn1cnc(C[C@H](CCCN)C(=O)O)c1 [UK-396,082] | half-life [1]: 2.1 h; clearance [6]: 1.5 mL/min/kg; bioavailability [2]: 10.6%; PPB (Plasma): 0%; half-life [7]: 4 h; clearance [3]: 10.2 mL/min/kg; Vd [4]: 1.9 L/kg; half-life [5]: 2.4 h; Vd [8]: 0.5 L/kg |
| 8.2 | 27 | NCCO[C@@H](Cc1cn(CCC2CCCCC2)cn1)C(=O)O | – |
| 7.5 | 240 | C[C@H](CN)O[C@@H](Cc1cn(-c2ccccc2)cn1)C(=O)O | – |
| 407 | > 10000 | CCCn1cnc(CC(OCCNC)C(=O)O)c1 (racemic) | – |
| 5.7 | 49 | CC(C)(C)c1ccc(-n2cnc(C[C@H](OCCN)C(=O)O)c2)cc1 | – |
| 65 | 2720 | Cc1ccccc1-n1cnc(CC(OCCN)C(=O)O)c1 (racemic) | – |
| 3.5 | 27 | NCCO[C@@H](Cc1cn(-c2ccccc2)cn1)C(=O)O | – |
